# How the values were obtained:
# Format in all cases: cell-based
# [1] = system: TT cells (human medullary thyroid carcinoma cells); test: alamarBlue proliferation assay with TT cells; conditions: Homo sapiens, 120 h, 40 μM, relative to DMSO basis level 1.0, read-out: weighted arithmetic mean (AVEw) of normalized fluorescence intensity, activity range
# Experimental: (§1) The antiproliferative activities of compounds falling under formula I, formula II, formula III, formula IV and formula V were investigated on cells or cell lines originating from a disorder of the myeloid cell compartment, the neuroendocrine system, the cervix, and the mucosal epithelium, as well as from the skin epithelium. To this end, HL-60 cells, TT cells, HeLa cells, CAL-27 cells and human primary epidermal keratinocytes (HPEK) were seeded into 96-well plates suitable for fluorescence assays (CORNING #3598) at following initial cell numbers: 1000 cells per well for HL-60; 9000 cells per well for TT; 2000 cells per well for HeLa, 2000 cells per well for CAL-27, 2000 cells per well for HPEK. The cells were treated with compounds at indicated final concentrations (diluted from the 1000× stock-solutions in DMSO to a final DMSO concentration of 0.1% v/v) or with the empty carrier DMSO at 0.1% v/v as control for 5 days. At day 5 after starting the treatments the cells were subjected to the alamarBlue® Proliferation Assay (Bio-Rad Serotec GmbH, BUF012B) according to the protocol of the manufacturer. The readout was taken with a multi-well plate-reader in the fluorescence mode with applying a filter for excitation at 560 nm (band width 10 nm) and for emission at 590 nm (band width 10 nm). Resveratrol (RES) treatment was included as control for growth inhibition.
# (§2) The assays were performed in duplicate or more replicates of independent single experiments each containing a six-fold replicate for every condition. For every individual plate, the measured fluorescence intensity values of the conditions with compound treatment were normalized against the corresponding equally weighted arithmetic mean of the fluorescence intensity values of the six DMSO treated control wells in order to obtain the relative values to a baseline level of 1.0. The statistical calculations were performed in analogy to the luciferase assay as described above. To this end, two independent outlier analyses were performed according to the methods by Peirce and Chauvenet (Ross, Journal of Engineering Technology 2003, 1-12). Outliers confirmed by at least one of the methods were excluded from the calculations but not more than one value out of six per compound within a single experiment. The weighted arithmetic mean AVEw for each compound was calculated from the normalized values over all independent replicates of the single experiments comprising the six replicates each. The corresponding standard deviation for the weighted arithmetic mean was calculated according to the method described by Bronstein et al. (Bronstein, Semendjajew, Musiol, Mühlig, Taschenbuch der Mathematik, 5th edition 2001 (German), publisher: Verlag Harri Deutsch, Frankfurt am Main and Thun) and was combined with the Gauß′ error propagation associated with the performed calculation for the normalization. The resulting standard deviation is herein referred to as “combined standard deviation”.
# TT cells were cultivated according to the protocol of the provider in F-12K medium (Fisherscientific, #11580556, or ATCC, #ATCC-30-2004) containing 10% fetal bovine serum (Fisherscientific, #15517589).
# (§3) A compound is considered as a growth inhibitor of TT cells, if—at a reference concentration of 40 μM—the weighted arithmetic mean of the normalized fluorescence intensity values after addition of the corresponding combined standard deviation amounts to 0.9 or lower, in particular to 0.8 or lower, 0.7 or lower, 0.6 or lower, 0.4 or lower, and 0.2 or lower, relative to the overall basis level of 1.0. The overall basis level was calculated as the weighted arithmetic mean of all normalized values from the DMSO control measurements in analogy to the calculations performed for the test-compounds. The corresponding combined standard deviation for the DMSO values amounts to less than 1·10^−2.
# [2] = system: BHY cells (human oral squamous cell carcinoma cells); test: alamarBlue proliferation assay with BHY cells; conditions: 72 h, 3 days treatment, single assay (preliminary), relative to DMSO basis level 1.0, read-out: equally weighted arithmetic mean (AVE) of six normalized fluorescence intensity values, activity range (RES: AVEw)
# Experimental: Compounds were tested on BHY cells using the alamarBlue® proliferation assay in analogy to the above described method with seeding the cells at an initial number of 4000 cells per 96-well and a duration of treatment with compounds for 3 days.
# BHY cells were cultivated according to the protocol of the provider (but at 5% instead of 10% CO2) in DMEM medium (Fisherscientific, #11584456) containing 10% fetal bovine serum (Fisherscientific, #15517589).
# A compound is considered as a growth inhibitor of BHY cells, if—at a reference concentration of 40 μM—the equally weighted arithmetic mean (AVE) of the six normalized fluorescence intensity values after addition of the corresponding standard deviation amounts to 0.9 or lower, in particular to 0.8 or lower, 0.7 or lower, 0.6 or lower, 0.4 or lower, and 0.2 or lower, relative to the overall basis level of 1.0. The overall basis level was calculated as the weighted arithmetic mean (AVEw) of all normalized values from the DMSO control measurements. The corresponding combined standard deviation for the DMSO values amounts to less than 1·10^−2. The corresponding standard deviations for the tested compounds were calculated including the Gauß′ error propagation associated with the performed calculation for the normalization. The weighted arithmetic mean (AVEw) and the combined standard deviation for RES was calculated in analogy to DMSO. Outlier analyses were performed as described above.
# [3] = system: HL-60 cells (human acute myeloid leukemia cells); test: alamarBlue proliferation assay with HL-60 cells; conditions: 120 h, 5 days, relative to DMSO baseline level of 1.0, read-out: AVEw, weighted arithmetic mean of normalized fluorescence intensity values (Activity Range), HL-60 proliferation
# Summary of the method: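 HL-60 cells (1000/well, RPMI 1640 + 10% FBS) exposed to compound in 0.1% DMSO for 5 days, then alamarBlue fluorescence read (ex 560/em 590 nm). Signals normalized to six DMSO wells per plate (baseline 1.0); outliers removed by Peirce/Chauvenet; weighted mean with combined SD; inhibitor criterion judged at 20 μM reference concentration.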
# [4] = system: CAL-27 cells (human tongue squamous cell carcinoma cells); test: alamarBlue proliferation assay with CAL-27 cells; conditions: Homo sapiens, 120 h, 20 μM, 5 days, relative to DMSO baseline level of 1.0, read-out: AVEw, weighted arithmetic mean of normalized fluorescence intensity values (Activity Range), CAL-27 proliferation
# Summary of the method: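 CAL-27 cells seeded at 2000 per well, exposed to compound in 0.1% DMSO for 5 days, then alamarBlue fluorescence (ex 560/em 590 nm). Values normalized to DMSO wells (1.0) as weighted means with combined standard deviation; growth inhibition judged at 20 μM reference concentration.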
# [5] = system: HPEKp cells (human epidermal keratinocyte progenitors, pooled); test: alamarBlue proliferation assay with HPEKp cells; conditions: 120 h, relative to DMSO basis level 1.0, read-out: weighted arithmetic mean (AVEw) of normalized fluorescence intensity, activity range
# Experimental: as §1, §2
# HPEKp cells were cultivated according to the protocol of the provider in CnT-Prime epithelial culture medium (CELLnTEC, #CnT-PR, a fully defined, low calcium formulation, completely free of animal or human-derived components) without addition of further components.
# as §3, with “HPEKp” for “TT”, “10” for “40”
SMILES,activity at 40 µM [1],activity at 40 µM [2],activity at 20 µM [3],activity at 20 µM [4],activity at 10 µM [5]
"O=C(NO)c1ccc(Oc2ccc(C3CCCCC3)cc2)c(F)c1 [Compound 540, 4-(4-cyclohexylphenoxy)-3-fluoro-N-hydroxybenzamide]",20 to 40%,0 to 20%,0 to 20%,0 to 20%,20 to 40%
CCC(C)(C)c1ccc(Oc2ncc(C(=O)NO)cc2F)cc1 [Compound 633],–,20 to 40%,0 to 20%,0 to 20%,–
